Legend:
[1] = test system: human iPS cell line (201B7); test: Optical microscopic observation of survival of cultured human iPS cells; format: cell-based; details: reagent added to culture in HSM, observed after 3 days; M50054 at 100 μg/mL
Experimental: (§1) A human iPS cell line (201B7; Riken Cell Bank) was seeded to a 25-cm^2 flask (manufactured by Asahi Glass Co., Ltd.), a 6-well plate (manufactured by Asahi Glass Co., Ltd.), or a 96-well flat-bottomed plate (manufactured by Asahi Glass Co., Ltd.), which is coated with Matrigel, and was cultured in a 5% CO2 incubator at 37° C. The coating with Matrigel was performed by: adding a solution prepared by adding 8.7 ml of Dalbecco's Modified Eagle's Medium/Nutrient F-12 Ham (manufactured by Sigma) to 0.3 ml of Matrigel™ (manufactured by Becton Dickinson) to a 25-cm^2 flask, a 6-well plate, and a 96-well flat-bottomed plate, in amounts of 1 ml, 0.5 ml, and 20 μl, respectively; and leaving the whole to stand still at room temperature for 30 minutes. ReproFF (manufactured by ReproCELL Incorporated) was used as a cell culture medium. ReproFF is a culture medium for culturing primate ES cells or human IFS cells while maintaining the pluripotency. The cells were passaged by culture using a 25-cm^2 flask. The cells were dispersed as described below. After the aspiration of the medium, the 25-cm^2 flask was rinsed with 1 ml of physiological saline per flask. After the aspiration of the saline, 0.5 ml of Accutase (manufactured by Innovative Cell Technologies) was added and the cells were incubated in an incubator for 5 minutes. 0.5 ml of ReproFF was added, and the cells were harvested. Then, the cells were centrifuged at 1,000 rpm for 3 minutes. The supernatant was removed by aspiration, and then the precipitated cells were used by being suspended in ReproFF.
An optical microscope CKX41N-31PHP (manufactured by Olympus Corporation) was used for an optical microscopic observation of cells. […]
Further, RNA was extracted and the expression levels of various genes were analyzed by real-time quantitative PCR. […]
The resultant cells were observed under an optical microscope. In addition, the expression level of AFP in the resultant cells was measured.

AFP gene = AFP gene expression in cultured iPS cells by real-time quantitative PCR; format: cell-based, human; details: for expression level of AFP gene: 2 days in HSM plus compound alone (10 μM)
Experimental: as §1
A medium used in a search study on various growth factors (hereinafter abbreviated as iPSm[-]) was prepared by adding 20% Knockout™ Serum Replacement (hereinafter abbreviated as KSR; manufactured by Life Technologies), Minimum Essential Amino Acids (manufactured by Life Technologies), 2 mM L-glutamine (manufactured by Life Technologies), and 1 mM 2-mercaptoethanol (manufactured by Sigma-Aldrich) to Dulbecco's […]-F12 (manufactured by Sigma-Aldrich) (Takahashi, K. et al., “Induction of Pluripotent Stem Cells from Adult Human Fibroblasts by Defined Factors,” Cell, 2007, Vol. 131, No. 5, p. 861-872).
Cell differentiation was confirmed by measuring an expression gene by real-time quantitative PCR. RNA was extracted by using Isogen (manufactured by NIPPON GENE) according to the manufacturer's instructions. 5 μg of total RNA was synthesized by using Superscript3 first-strand synthesis system for PCR (manufactured by Life Technologies) and an oligo dT primer according to the manufacturer's instructions. Real-time quantitative PCR was performed using 4 ng of synthesized cDNA per sample. PCR was performed as follows: PCR were 40 cycles of denaturation for 5 seconds and annealing-extension for 5 seconds. SYBR Green Master Mix (manufactured by Life Technologies) was used for the reaction. Mini Opticon system (manufactured by Bio-Rad) was used for detection in real-time PCR. The expression level of each gene was calculated as an average value of data obtained from three wells. Ribosomal protein L (RPL)-19 was used as an internal control and the expression level of each gene was represented as a relative expression level to the expression level of RPL-19.
First, iPS cells were cultured in HSM to confirm differentiation of the iPS cells to hepatocytes. Specifically, iPS cells were cultured in HSM for 2 days, and then gene expression in the cells was measured by real-time quantitative PCR. Thus, the induction of differentiation of iPS cells to hepatocytes was detected. ReproFF was used as a control medium and similar investigations were performed.
In this Example, the addition of NEAA and sodium pyruvate (1 mM) to HSM was investigated for the purpose of enhancing the survival of iPS cells. Specifically, iPS cells were cultured for 2 days in a medium prepared by adding NEAA and sodium pyruvate (1 mM) to HSM, and the expression of AFP gene was measured by real-time quantitative PCR. […]

[2] = test system: human iPS cell line (201B7); test: Cell proliferation assay (MTS assay) of surviving iPS cells; format: cell-based
Experimental: A human iPS cell line (201B7, Riken Cell Bank) was seeded to a 96-well flat-bottomed plate coated with Matrigel at 1,000 cells/50 μl per well. After 48 hours of culture, 3-(4,5-dimethylthiazol-2-yl)-5-(3-carboxymethoxyphenyl)-2-(4-sulfophenyl)-2H-tetrazolium inner salt (MTS; manufactured by Promega) was added at 5 μl per well, and the cells were incubated in an incubator for 2 hours. After that, cell proliferation was verified by measuring an absorbance at a wavelength of 490 nm with iMark™ Microplate Absorbance Reader (manufactured by Bio-Rad).
In view of the foregoing, MTS assay was performed 48 hours after the addition of M50054.

[3] = 1 week in iPSm(-) supplemented with growth factor
[4] = 48 hours in HSM supplemented with the factor alone

Q: For `O=C1OC(C=Cc2ccccc2)=N/C1=C\c1cccnc1` [DAPK inhibitor, (4Z)-4-(3-pyridylmethylene)-2-styryl-oxazol-5-one], which “survival of iPS cells observed with an optical microscope” value [1] is on record?
A: Its value is “died”.

Q: For “HGF: hepatocyte growth factor, commercially available from Wako Pure Chemical Industries”, which “expression of AFP gene” value (AFP gene; [3]) is on record?
A: The value was “upregulating effect”.

Q: What does the source list for `O=C1CCCC(=O)C1CC1C(=O)CCCC1=O` [M50054, 2,2′-methylenebis(1,3-cyclohexanedione)]?
A: MTS assay value, one-way analysis of variance ([2]; 100 μg/mL compared to 0 μg/mL and 1,000 μg/mL, P<0.05): significantly high value; cell toxicity (MTS assay) ([2]; 1,000 μg/mL): showed cell toxicity; absorbance in MTS assay (surviving cells) ([2]; 48 hours after addition of M50054, 100 g/mL as printed): maximum absorbance; expression of AFP gene (AFP gene; 48 hours in HSM plus M50054 at […] as printed): upregulated; survival of iPS cells observed with an optical microscope [1]: some of the iPS cells survived

Q: For `O=C(O)c1ccc(Cl)c(S(=O)(=O)Nc2cccc([N+](=O)[O-])c2)c1` [CTP inhibitor, 4-chloro-3-[[(3-nitrophenyl)amino]sulfonyl]-benzoic acid], which “survival of iPS cells observed with an optical microscope” value [1] is on record?
A: The value was “died”.

Q: With `CC(=O)Nc1ccc(Cc2ccc(NC(C)=O)cc2)cc1` [FH1, N,N′-(methylenebis(4,1-phenylene))diacetamide] as the molecule, how does the “expression level of AFP gene” value (AFP gene) read?
A: Its value is “did not exhibit such effect”.

Q: For `Cc1ccc(Cl)cc1N(CC(=O)Nc1c(F)cccc1F)S(C)(=O)=O` [FPH1, 2-(N-(5-chloro-2-methylphenyl)methylsulfonamido)-N-(2,6-difluorophenyl)acetamide], which “expression level of AFP gene” value (AFP gene) is on record?
A: Its value is “increased”.

B1: oncostatin M: cytokine of the IL-6 family (protein, UniProt P13725 26-221, looked up)
Oncostatin-M: AAIGSCSKEYRVLLGQLQKQTDLMQDTSRLLDPYIRIQGLDVPKLREHCRERPGAFPSEETLRGLGRRGFLQTLNATLGCVLHRLADLEQRLPKAQDLERSGLNIEDLEKLQMARPNILGLRNNIYCMAQLLDNSDTAEPTKAGRGASQPPTPTPASDAFQRKLEGCRFLHGYHRFMHSVGRVFSKWGESPNRSRR
Q: How did the “expression of AFP gene” value (AFP gene; [3]) turn out when B1 was run?
A: Its value is “upregulating effect”.

Q: And the “expression of AFP gene, compared to HGF” value (AFP gene; [4])?
A: The value was “high upregulating effect”.

Q: What about the “expression of AFP gene, compared to fetal liver” value (AFP gene; [4]) of the same molecule?
A: Its value is “more upregulated than the expression of the gene in fetal liver”.
